Measurements reported in patent publication US20100144672A1, “PYRIMIDINYL PYRAZOLES AS INSECTICIDES AND PARASITICIDE ACTIVE AGENTS” (BAYER CROPSCIENCE AG, priority 2006, published 2010).

Columns and labels:
Format in all cases: in vivo
[1] = test system: caterpillars of the army worm (Spodoptera frugiperda); experiment: Spodoptera frugiperda test (SPODFR spray treatment); details: 168 h, application rate 500 g/ha, after 7 d, read-out: activity (effect in %, caterpillars killed)
Experimental: Spodoptera frugiperda Test (SPODFR Spray Treatment) [table] To produce a suitable preparation of active compound, 1 part by weight of active compound is mixed with the stated amounts of solvents and emulsifier, and the concentrate is diluted with emulsifier-containing water to the desired concentration. Discs of maize leaves (Zea mays) are sprayed with an active compound preparation of the desired concentration and, after drying, populated with caterpillars of the army worm (Spodoptera frugiperda). After the desired period of time, the effect in % is determined 100% means that all caterpillars have been killed; 0% means that none of the caterpillars have been killed.

[2] = test system: larvae of the mustard beetle (Phaedon cochleariae); experiment: Phaedon test (PHAECO spray treatment); details: 168 h, application rate 500 g/ha, after 7 d, read-out: activity (effect in %, beetle larvae killed)
Experimental: Phaedon Test ([…] Spray Treatment) [table] To produce a suitable preparation of active compound, 1 part by weight of active compound is mixed with the stated amounts of solvents and emulsifier, and the concentrate is diluted with emulsifier-containing water to the desired concentration. Discs of chinese cabbage (Brassica pekinensis) are sprayed with an active compound preparation of the desired concentration and, after drying, populated with larvae of the mustard beetle (Phaedon cochleariae). After the desired period of time, the effect in % is determined 100% means that all beetle larvae have been killed; 0% means that none of the beetle larvae have been killed.

Lucilia cuprina larvae = experiment: Lucilia cuprina test (LUCICU); details: 48 h, application rate 100 ppm, after 2 d, treated horse meat, read-out: activity (kill in %, larvae)
Experimental: Lucilia cuprina Test (LUCICU) Solvent: dimethyl sulphoxide To produce a suitable preparation of active compound, 1 part by weight of active compound is mixed with the stated amount of water, and the concentrate is diluted with water to the desired concentration. Containers containing horse meat treated with the active compound preparation of the desired concentration are populated with Lucilia cuprina larvae. After the desired period of time, the kill in % is determined 100% means that all larvae have been killed; 0% means that none of the larvae have been killed.

Compound	pest or weed control at 500 g/ha [1]	pest or weed control at 500 g/ha [2]	pest or weed control at 100 ppm (Lucilia cuprina larvae)
Nc1c(-c2ccc(Cl)cc2)c(C(F)(F)F)nn1-c1ncccn1 [Example 1-6, 4-(4-chlorophenyl)-1-pyrimidin-2-yl-3-(trifluoromethyl)-1H-pyrazole-5-amine]	≥ 80%	≥ 80%	≥ 80%
Nc1c(-c2ccc(Br)cc2)c(C(F)(F)F)nn1-c1ncccn1 [Example 1-9, 4-(4-bromophenyl)-1-pyrimidin-2-yl-3-(trifluoromethyl)-1H-pyrazole-5-amine]	≥ 80%	≥ 80%	≥ 80%
Nc1c(-c2ccc(F)c(Cl)c2)c(C(F)(F)F)nn1-c1ncccn1 [Example 1-79, 4-(3-chloro-4-fluorophenyl)-1-pyrimidin-2-y1-3-(trifluoromethyl)-1H-pyrazole-5-amine]	≥ 80%	≥ 80%	≥ 80%
Nc1c(-c2ccc(Cl)c(Cl)c2)c(C(F)(F)F)nn1-c1ncccn1 [Example 1-80, 4-(3,4-dichlorophenyl)-1-pyrimidin-2-yl-3-(trifluoromethyl)-1H-pyrazole-5-amine]	≥ 80%	≥ 80%	≥ 80%
Nc1c(-c2ccc(Cl)c(Br)c2)c(C(F)(F)F)nn1-c1ncccn1 [Example 1-87, 4-(3-bromo-4-chlorophenyl)-2-pyrimidin-2-yl-5-(trifluoromethyl)-2H-pyrazol-3-ylamine]	≥ 80%	≥ 80%	–
Nc1c(-c2cc(Cl)cc(C(F)(F)F)c2)c(C(F)(F)F)nn1-c1ncccn1 [Example 3-25, 4-(3-chloro-5-trifluoromethylphenyl)-2-pyrimidin-2-yl-5-trifluoromethyl-2H-pyrazol-3-ylamine]	≥ 80%	≥ 80%	≥ 80%
COc1ccc(-c2c(C(F)(F)F)nn(-c3ncccn3)c2N)cc1 [Example 5-22]	–	≥ 80%	≥ 80%
Nc1c(-c2ccc(SC(F)(F)F)cc2)c(C(F)(F)F)nn1-c1ncccn1 [Example 5-62]	–	≥ 80%	≥ 80%
CN(C)c1ccc(-c2c(C(F)(F)F)nn(-c3ncccn3)c2N)cc1 [Example 5-89]	–	≥ 80%	–
Nc1c(-c2cccc(SC(F)(F)F)c2)c(C(F)(F)F)nn1-c1ncccn1 [Example 6-61]	–	≥ 80%	–
N#Cc1cccc(-c2c(C(F)(F)F)nn(-c3ncccn3)c2N)c1 [Example 6-70]	≥ 80%	≥ 80%	–
Nc1c(-c2cccc([N+](=O)[O-])c2)c(C(F)(F)F)nn1-c1ncccn1 [Example 6-78]	≥ 80%	≥ 80%	–
CC(C)Oc1ccc(-c2c(C(F)(F)F)nn(-c3ncccn3)c2N)cc1Cl [Example 8-92, 4-(3-chloro-4-isopropoxyphenyl)-2-pyrimidin-2-yl-5-trifluoromethyl-2H-pyrazol-3-ylamine]	–	≥ 80%	–
CNc1c(-c2ccc(Br)cc2)c(C(F)(F)F)nn1-c1ncccn1 [Example 11-10, 4-(4-bromophenyl)-N-methyl-1-pyrimidin-2-yl-3-(trifluoromethyl)-1H-pyrazole-5-amine]	–	≥ 80%	–
CCNc1c(-c2ccc(Cl)cc2)c(C(F)(F)F)nn1-c1ncccn1 [Example 12-7, 4-(4-chlorophenyl)-N-ethyl-l-pyrimidin-2-yl-3-(trifluoromethyl)-1H-pyrazole-5-amine]	≥ 80%	≥ 80%	≥ 80%
FC(F)(F)c1nn(-c2ncccn2)c(Cl)c1-c1ccc(Cl)cc1 [Example 14-7]	≥ 80%	≥ 80%	≥ 80%
CC(=O)N(C(C)=O)c1c(-c2ccc(Cl)c(Cl)c2)c(C(F)(F)F)nn1-c1ncccn1 [Example 29-37, N,N-diacetyl-4-(3,4-dichlorophenyl)-1-pyrimidin-2-yl-3-(trifluoromethyl)-1H-pyrazole-5-amine]	≥ 80%	≥ 80%	–
